Experimental data published in PMC8761492 (Life Science Alliance, 2022).
Several values for one entry are separate records, joined by “and”; a condition that tells them apart may be missing. Equal values may be shown once. Read-outs that look alike come from different tables or passages of the source. Starred links: 1 amine or outer side, 2 acyl side, 3 side chain; linkers in the order of their positions; H or OH if unused. Positions of bridges follow the written chain, without caps; N, C: chain ends. Non-standard residues stand in square brackets, D forms with d. Residues, ends and D or L forms follow the SMILES beside them. *: point of attachment. X1 = CC[C@H](C)[C@@H](N[*:1])[C@@H](O)CC(=O)O[C@H](C(=O)[C@H](C)C(=O)[*:2])C(C)C; NMeY = CN[C@@H](Cc1ccc(O)cc1)C(=O)O; dNMeL = CN[C@H](CC(C)C)C(=O)O; Pyruvoyl = CC(=O)C(=O)*

Legend:
[1] = APLICOV-PC: central analysis of electrocardiograms; conditions: 317 ECGs from 44 patients; no value above
SARS-CoV-2/WA1 = experiment: SARS-CoV-2 infectivity in HeLa-ACE2 cells (viral NP); format: cell-based; conditions: Severe acute respiratory syndrome coronavirus 2, HeLa-ACE2, 48 h
COVID-19 = experiment: APLICOV-PC: post hoc analysis of hospital discharge; format: in vivo, human
Procedure: Post hoc analyses were conducted to (1) assess disease severity at baseline (mild, moderate, severe COVID-19 by FDA criteria) ([23]) and (2) assess covariates associated with efficacy end points, including hospital discharge by Day 15 or Day 8.
The Kaplan–Meier method was used for the description of time to event end points and the median and the 95% confidence intervals were provided.

[2] = tested on: SARS-CoV-2 (βCoV/KOR/KCDC03/2020); experiment: microbe, parasite or virus in culture; format: cell-based; conditions: Severe acute respiratory syndrome coronavirus 2, Vero
[3] = human, cited from earlier work
SARS-CoV-2 [4] = experiment: APLICOV-PC: SARS-CoV-2 viral load by qRT-PCR of nasopharyngeal samples; format: in vivo, human; conditions: for mean viral load decline from baseline: all doses; for log10 viral load: individual patients, ND = not detected
Procedure: Secondary outcomes included change from baseline of viral load, as evaluated by quantitative PCR via central laboratory on nasopharyngeal exudate or sampled from the lower respiratory tract within 48 h before first administration of plitidepsin and on days 4, 7, 15, and 31, and the percentage of patients requiring oxygen therapy, noninvasive mechanical ventilation, invasive mechanical ventilation and/or intensive care unit admission, and the percentage of patients with a fatal outcome on days 7, 15, and 31.
Centralized assessments of nasopharyngeal samples were performed at SYNLAB. Viral RNA extraction from the samples was performed using the Maxwell HT Viral TNA (AX2340) Promega, on the Hamilton automated extraction platform. Detection of nCoV2019 was carried out with the kit: TaqPath TM COVID-19 RT-PCR KIT (A48102) Thermo Fisher Scientific. The positivity/negativity criteria used for the interpretation of the results are defined in Table S7.
Each sample was analyzed in triplicate, and the cycle threshold (CT) value obtained was extrapolated to the standard curve, so that a value of viral load is obtained per reaction for said sample. The quantification, in triplicate, of the viral load of the patient sample was carried out at each of the five time points.
For quantification, in each sample plate, eight points, in triplicate (24 PCR in total), of the plasmid IDT 2019 nCov Kit CDC EUA of known viral load was used to generate the standard line on which to extrapolate the results of the samples of the trial patients. The sensitivity of the analytical method is 10 mRNA copies/run. Assuming a starting sample volume of 200 μl, from which 100 μl of mRNA can be obtained, and that a single PCR run requires 5 μl mRNA, it can be estimated that the sensitivity for 100% of the replicates is 1,000 mRNA copies/ml (3 log10). For mathematical analysis and graphical visualization, an intermediate value of 1.5 log10 has been imputed to samples with undetected SARS-CoV-2 mRNA.

SARS-CoV-2 [5] = experiment: SARS-CoV-2-induced cytopathic effect in Vero E6 cells (CellTiter-Glo); conditions: read-out: IC50 against SARS-CoV-2-induced cytopathic effects, 3 d post infection

For `CC[C@H](C)[C@H]1NC(=O)[C@@H](NC(=O)[C@@H](CC(C)C)N(C)C(=O)[C@@H]2CCCN2C(=O)C(C)=O)[C@@H](C)OC(=O)[C@H](Cc2ccc(OC)cc2)N(C)C(=O)[C@@H]2CCCN2C(=O)[C@H](CC(C)C)NC(=O)[C@@H](C)C(=O)[C@H](C(C)C)OC(=O)C[C@@H]1O` [Plitidepsin] (Pyruvoyl-P[dNMeL]T[X1]LP[NMeY](Me); ester 3-C), the QTcF [1] was no more than 480 ms, the “δ QTcF” value [1] was no more than 60 ms and the IC50 (SARS-CoV-2/WA1; read-out: Antiviral IC50) was 0.201 nM. The IC90 (SARS-CoV-2/WA1; read-out: Antiviral IC90) was 0.881 nM, the “discharge rate at Day 15” value (COVID-19; 1.5 mg/day) was 78.6% and the “patients achieving hospital discharge by Day 8” value (COVID-19; 1.5 mg/day) was 42.9%. The “discharge rate at Day 15” value (COVID-19; 2 mg/day) was 93.3%, the “patients achieving hospital discharge by Day 8” value (COVID-19; 2 mg/day) was 60% and the “discharge rate at Day 15” value (COVID-19; 2.5 mg/day) was 73.3%. For the same compound, the “patients achieving hospital discharge by Day 8” value (COVID-19; 2.5 mg/day) was 66.7%, the “median time to discharge” value (COVID-19; mild COVID-19 at baseline) was 7 days and the “discharge rate by Day 8” value (COVID-19; mild disease, 4 of 6) was 66.7%. For the same compound, the “discharge rate by Day 15” value (COVID-19; mild disease, 6 of 6) was 100%, the “median time to discharge” value (COVID-19; moderate COVID-19 at baseline) was 7 days and the “patients discharged beyond day 8” value (COVID-19; moderate disease at baseline, 1.5 mg/day, three of eight) was 38%. For the same compound, the “patients discharged beyond day 8” value (COVID-19; moderate disease at baseline, 2.0 mg/day, three of seven) was 43%, the “patients discharged by day 8” value (COVID-19; moderate disease at baseline, 2.5 mg/day) was 8 of 8 and the “discharge rate by Day 8” value (COVID-19; moderate disease, 17 of 23) was 73.9%. The “discharge rate by Day 15” value (COVID-19; moderate disease, 22 of 23) was 95.7%, the “discharge rate by day 8” value (COVID-19; overall, 25 of 44) was 56.8% and the “discharge rate by day 15” value (COVID-19; overall, 36 of 44) was 81.8%. For the same compound, the “median time to discharge” value (COVID-19; severe COVID-19 at baseline) was 14 days, the “discharge rate by Day 8” value (COVID-19; severe disease, 4 of 15) was 27% and the “discharge rate by Day 15” value (COVID-19; severe disease, 8 of 15) was 53.3%. For the same compound, the IC50 ([2]; Boryung Pharmaceuticals) was 3.26 nM, the IC90 ([2]; estimated from IC50 and Hill slope) was 9.38 nM and the half-life ([3]; plasma concentrations, non-compartmental analysis, ref study APL-B-015-14) was 48.1 h. The half-life ([3]; whole blood concentrations, ref pharmacokinetic population analysis) was 161 h, the “Mean time from baseline until undetectable viral load” value (SARS-CoV-2 [4]; 1.5 mg) was 11 days and the “Mean time from baseline until undetectable viral load” value (SARS-CoV-2 [4]; 2.0 mg) was 14 days. The “Mean time from baseline until undetectable viral load” value (SARS-CoV-2 [4]; 2.5 mg) was 14 days, the “Mean change in viral load from baseline to” value (shortened to “Mean change in viral load”) (SARS-CoV-2 [4]; Day 4, 1.5 mg) was −1.23 log10 copies/ml and the “Mean change in viral load” value (SARS-CoV-2 [4]; Day 4, 2.0 mg) was −1.49 log10 copies/ml. For the same compound, the “Mean change in viral load” value (SARS-CoV-2 [4]; Day 4, 2.5 mg) was −1.32 log10 copies/ml, the “Mean change in viral load” value (SARS-CoV-2 [4]; Day 4, Total) was −1.35 log10 copies/ml and the “Mean change in viral load” value (SARS-CoV-2 [4]; Day 7, 1.5 mg) was −2.55 log10 copies/ml. The “Mean change in viral load” value (SARS-CoV-2 [4]; Day 7, 2.0 mg) was −2.26 log10 copies/ml, the “Mean change in viral load” value (SARS-CoV-2 [4]; Day 7, 2.5 mg) was −2.25 log10 copies/ml and the “Mean change in viral load” value (SARS-CoV-2 [4]; Day 7, Total) was −2.35 log10 copies/ml. The “Mean change in viral load” value (SARS-CoV-2 [4]; Day 15, 1.5 mg) was −4.22 log10 copies/ml, the “Mean change in viral load” value (SARS-CoV-2 [4]; Day 15, 2.0 mg) was −2.70 log10 copies/ml and the “Mean change in viral load” value (SARS-CoV-2 [4]; Day 15, 2.5 mg) was −2.92 log10 copies/ml. The “Mean change in viral load” value (SARS-CoV-2 [4]; Day 15, Total) was −3.25 log10 copies/ml, the “Mean change in viral load” value (SARS-CoV-2 [4]; Day 31, 1.5 mg) was −4.70 log10 copies/ml and the “Mean change in viral load” value (SARS-CoV-2 [4]; Day 31, 2.0 mg) was −3.53 log10 copies/ml. The “Mean change in viral load” value (SARS-CoV-2 [4]; Day 31, 2.5 mg) was −3.49 log10 copies/ml, the “Mean change in viral load” value (SARS-CoV-2 [4]; Day 31, Total) was −3.85 log10 copies/ml and the “Mean time from baseline until undetectable viral load” value (SARS-CoV-2 [4]; Total) was 13 days. The “mean viral load decline from baseline” value (SARS-CoV-2 [4]; day 4) was 1.35 log10 copies/ml, the “mean viral load decline from baseline” value (SARS-CoV-2 [4]; day 7) was 2.35 log10 copies/ml and the “mean viral load decline from baseline” value (SARS-CoV-2 [4]; day 15) was 3.25 log10 copies/ml. The “mean viral load decline from baseline” value (SARS-CoV-2 [4]; day 31) was 3.85 log10 copies/ml, the log10 viral load (SARS-CoV-2 [4]; 1.5 mg/d, Day 4) was 5.14 copies/ mL and 3.25 copies/ mL and 8.4 copies/ mL and 9.54 copies/ mL and 6.54 copies/ mL and 3.61 copies/ mL and 7.39 copies/ mL and 4.02 copies/ mL and 6.56 copies/ mL and 5.76 copies/ mL and the log10 viral load (SARS-CoV-2 [4]; 1.5 mg/d, Day 7) was 8.47 copies/ mL and 6.63 copies/ mL and 4.34 copies/ mL and 4.7 copies/ mL and 5.83 copies/ mL and 4.71 copies/ mL and 3.82 copies/ mL. For the same compound, the log10 viral load (SARS-CoV-2 [4]; 1.5 mg/d, Day 15) was 6.05 copies/ mL and 7.46 copies/ mL, the log10 viral load (SARS-CoV-2 [4]; 1.5 mg/d, Day 31) was 4.42 copies/ mL and the log10 viral load (SARS-CoV-2 [4]; 2 mg/d, Day 4) was 7.95 copies/ mL and 4.46 copies/ mL and 5.3 copies/ mL and 6.17 copies/ mL and 4.53 copies/ mL and 4.47 copies/ mL and 5.34 copies/ mL and 5.99 copies/ mL and 5.69 copies/ mL and 5.5 copies/ mL. The log10 viral load (SARS-CoV-2 [4]; 2 mg/d, Day 7) was 6.52 copies/ mL and 4.68 copies/ mL and 4.59 copies/ mL and 3.38 copies/ mL and 4.02 copies/ mL and 3.62 copies/ mL and 4.33 copies/ mL and 2.89 copies/ mL and 5.2 copies/ mL and 5.49 copies/ mL, the log10 viral load (SARS-CoV-2 [4]; 2 mg/d, Day 15) was 8.14 copies/ mL and 5.52 copies/ mL and 5.22 copies/ mL and 4.43 copies/ mL and 4.92 copies/ mL and the log10 viral load (SARS-CoV-2 [4]; 2 mg/d, Day 31) was 7.37 copies/ mL and 4.31 copies/ mL and 4.69 copies/ mL. The log10 viral load (SARS-CoV-2 [4]; 2.5 mg/d, Day 4) was 4.3 copies/ mL and 5.45 copies/ mL and 4.37 copies/ mL and 4.77 copies/ mL and 5.57 copies/ mL and 6.26 copies/ mL and 8.67 copies/ mL and 9.84 copies/ mL and 3.79 copies/ mL and 9.25 copies/ mL, the log10 viral load (SARS-CoV-2 [4]; 2.5 mg/d, Day 7) was 3.05 copies/ mL and 4.44 copies/ mL and 5.49 copies/ mL and 3.33 copies/ mL and 7.29 copies/ mL and 9.54 copies/ mL and 6.99 copies/ mL and the log10 viral load (SARS-CoV-2 [4]; 2.5 mg/d, Day 15) was 3.8 copies/ mL and 5.66 copies/ mL and 5.92 copies/ mL and 8.33 copies/ mL. For the same compound, the log10 viral load (SARS-CoV-2 [4]; 2.5 mg/d, Day 31) was 3.6 copies/ mL and 5.33 copies/ mL and 4.68 copies/ mL, the “mean time to undetectable viral load” value (SARS-CoV-2 [4]; patients with mild or moderate disease at baseline) was 12 days and the “mean time to undetectable viral load” value (SARS-CoV-2 [4]; patients with severe disease at baseline) was 15 days. It also gave an IC50 (SARS-CoV-2 [5]) of 38 nM.
